Results as given in PubChem BioAssay AID248 (DTP/NCI, 2004).
Toxic doses and inconclusive results are not listed. Rule as the data show it: active = T/C of 150% or more; inactive = T/C below 125%.

Test system: L1210 leukemia ip in BDF1 mice, survival T/C
Test: NCI In Vivo Anticancer Drug Screen. Data for tumor model L1210 Leukemia (intraperitoneal) in B6D2F1 (BDF1) mice
Details: endpoint: mean survival time, higher = longer survival
Summary of the method: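 Read-out is survival time, reported as the treated-group measurement over the vehicle-control measurement.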

[1] = dose: 100.0 mg/kg/injection, schedule: Q04DX003 (ip), vehicle: Klucel (hydroxypropylcellulose) (HPC)
[2] = dose: 200.0 mg/kg/injection, schedule: Q04DX003 (ip), vehicle: Klucel (hydroxypropylcellulose) (HPC)
[3] = dose: 400.0 mg/kg/injection, schedule: Q04DX003 (ip), vehicle: Klucel (hydroxypropylcellulose) (HPC)
[4] = dose: 100.0 mg/kg/injection, schedule: Q01DX009 (ip), vehicle: saline with Tween-80
[5] = dose: 100.0 mg/kg/injection, schedule: Q04DX003 (ip), vehicle: saline with Tween-80
[6] = dose: 200.0 mg/kg/injection, schedule: Q01DX009 (ip), vehicle: saline with Tween-80
[7] = dose: 200.0 mg/kg/injection, schedule: Q04DX003 (ip), vehicle: saline with Tween-80
[8] = dose: 400.0 mg/kg/injection, schedule: Q01DX009 (ip), vehicle: saline with Tween-80
[9] = dose: 400.0 mg/kg/injection, schedule: Q04DX003 (ip), vehicle: saline with Tween-80
[10] = dose: 100.0 mg/kg/injection, schedule: Q01DX009 (ip), vehicle: Klucel (hydroxypropylcellulose) (HPC)
[11] = dose: 200.0 mg/kg/injection, schedule: Q01DX009 (ip), vehicle: Klucel (hydroxypropylcellulose) (HPC)
[12] = dose: 100.0 mg/kg/injection, schedule: Q01DX001 (ip), vehicle: saline
[13] = dose: 200.0 mg/kg/injection, schedule: Q01DX001 (ip), vehicle: saline
[14] = dose: 400.0 mg/kg/injection, schedule: Q01DX001 (ip), vehicle: saline
[15] = dose: 100.0 mg/kg/injection, schedule: Q04DX002 (ip), vehicle: saline with Tween-80
[16] = dose: 400.0 mg/kg/injection, schedule: Q04DX002 (ip), vehicle: saline with Tween-80

Measured: T/C

COC1OC2COC(c3ccccc3)OC2C(OC(=S)N(C)C)C1OC(=S)N(C)C (configuration not stated)
inactive: dose: 100.0 mg/kg/injection, schedule: Q04DX003 (ip), vehicle: saline sonified 94 % of control | dose: 200.0 mg/kg/injection, schedule: Q04DX003 (ip), vehicle: saline sonified 92 % of control | dose: 400.0 mg/kg/injection, schedule: Q04DX003 (ip), vehicle: saline sonified 92 % of control

CC(=O)OCC1CC2C=CC1C2 (configuration not stated)
inactive: dose: 222.0 mg/kg/injection, schedule: Q01DX Z (ip), vehicle: saline 98 % of control | dose: 333.0 mg/kg/injection, schedule: Q01DX Z (ip), vehicle: saline 102 % of control | dose: 500.0 mg/kg/injection, schedule: Q01DX Z (ip), vehicle: saline 104 % of control

CCCCCCCCC(=O)N(CC)CC
inactive: dose: 100.0 mg/kg/injection, schedule: Q04DX002 (ip), vehicle: saline 111 % of control | dose: 200.0 mg/kg/injection, schedule: Q04DX002 (ip), vehicle: saline 103 % of control | dose: 400.0 mg/kg/injection, schedule: Q04DX002 (ip), vehicle: saline 96 % of control

CC(C)(C)c1ccc(C(=O)O)cc1.[Cu+2]
inactive: dose: 2.5 mg/kg/injection, schedule: Q01DX009 (ip), vehicle: Klucel (hydroxypropylcellulose) (HPC) 109 % of control | dose: 5.0 mg/kg/injection, schedule: Q01DX009 (ip), vehicle: Klucel (hydroxypropylcellulose) (HPC) 101 % of control | dose: 10.0 mg/kg/injection, schedule: Q01DX009 (ip), vehicle: Klucel (hydroxypropylcellulose) (HPC) 106 % of control | dose: 20.0 mg/kg/injection, schedule: Q01DX009 (ip), vehicle: Klucel (hydroxypropylcellulose) (HPC) 101 % of control

COc1nc(NNC(N)=S)ccc1[N+](=O)[O-]
inactive: [1] 91 % of control | [2] 93 % of control | [3] 93 % of control

O=C(c1cc(=O)[nH]c(=O)[nH]1)N(CCO)CCO
inactive: dose: 100.0 mg/kg/injection, schedule: Q01DX Z (ip), vehicle: saline 106 % of control | dose: 200.0 mg/kg/injection, schedule: Q01DX Z (ip), vehicle: saline 93 % of control

CCC(C)COC(=O)c1cccc2c1-c1ccccc1C2=O (configuration not stated)
inactive: dose: 100.0 mg/kg/injection, schedule: Q01DX001 (ip), vehicle: other 98 % of control | dose: 200.0 mg/kg/injection, schedule: Q01DX001 (ip), vehicle: other 88 % of control | dose: 400.0 mg/kg/injection, schedule: Q01DX001 (ip), vehicle: other 93 % of control

O=CN=C(CS(=O)(=O)O)c1ccccc1
inactive: dose: 50.0 mg/kg/injection, schedule: Q04DX003 (ip), vehicle: saline 103 % of control | dose: 100.0 mg/kg/injection, schedule: Q04DX003 (ip), vehicle: saline 108 % of control | dose: 200.0 mg/kg/injection, schedule: Q04DX003 (ip), vehicle: saline 100 % of control | dose: 400.0 mg/kg/injection, schedule: Q04DX003 (ip), vehicle: saline 102 % of control

CCOC(=O)CC(=O)N/N=C(/C)C(=O)OCC
inactive: [4] 94 % of control | [5] 97 % of control | [6] 87 % of control | [7] 105 % of control | [8] 97 % of control | [9] 105 % of control

c1ccc(C2(c3ccccc3)CC([P+](c3ccccc3)(c3ccccc3)c3ccccc3)N=N2)cc1 (configuration not stated)
inactive: dose: 10.0 mg/kg/injection, schedule: Q01DX001 (ip), vehicle: saline 103 % of control | dose: 20.0 mg/kg/injection, schedule: Q01DX001 (ip), vehicle: saline 111 % of control | dose: 40.0 mg/kg/injection, schedule: Q01DX001 (ip), vehicle: saline 112 % of control

CCOC(=O)CC(CC(=O)OCC)NC(=O)c1ccc(N(C)C(=O)OCc2ccccc2)cc1
inactive: dose: 100.0 mg/kg/injection, schedule: Q01DX001 (ip), vehicle: carboxymethylcellulose (CMC) 97 % of control | dose: 200.0 mg/kg/injection, schedule: Q01DX001 (ip), vehicle: carboxymethylcellulose (CMC) 100 % of control | dose: 400.0 mg/kg/injection, schedule: Q01DX001 (ip), vehicle: carboxymethylcellulose (CMC) 105 % of control

CCOC(=O)C[P+](c1ccc(OC)cc1)(c1ccc(OC)cc1)c1ccc(OC)cc1
inactive: dose: 30.0 mg/kg/injection, schedule: Q01DX001 (ip), vehicle: carboxymethylcellulose (CMC) 90 % of control

ON=C(CCl)CCl
inactive: dose: 6.25 mg/kg/injection, schedule: Q01DX009 (ip), vehicle: saline 89 % of control | dose: 12.5 mg/kg/injection, schedule: Q01DX001 (ip), vehicle: saline 113 % of control | dose: 25.0 mg/kg/injection, schedule: Q01DX001 (ip), vehicle: saline 98 % of control

CC(C#N)(Cc1ccccc1)Nc1ccccc1 (configuration not stated)
inactive: dose: 50.0 mg/kg/injection, schedule: Q01DX009 (ip), vehicle: saline with Tween-80 102 % of control | [4] 101 % of control | [6] 96 % of control

Brc1cnc(OCc2ccccc2)nc1OCc1ccccc1
inactive: [10] 91 % of control | [4] 103 % of control | [1] 96 % of control | [5] 103 % of control | [11] 102 % of control | [6] 102 % of control | [2] 100 % of control | [7] 97 % of control | dose: 400.0 mg/kg/injection, schedule: Q01DX009 (ip), vehicle: Klucel (hydroxypropylcellulose) (HPC) 104 % of control | [8] 101 % of control | [3] 93 % of control | [9] 92 % of control

CCC(C(=O)NC(=O)NOC)c1ccccc1 (configuration not stated)
inactive: dose: 100.0 mg/kg/injection, schedule: Q01DX Z (ip), vehicle: methylcellulose (MC) 95 % of control | dose: 200.0 mg/kg/injection, schedule: Q01DX Z (ip), vehicle: methylcellulose (MC) 114 % of control | dose: 400.0 mg/kg/injection, schedule: Q01DX Z (ip), vehicle: methylcellulose (MC) 116 % of control

O=c1cc(O)cc(Cl)[nH]1
inactive: [12] 96 % of control | [13] 91 % of control | [14] 96 % of control

NC(=O)c1ccc[n+](CC(=O)Nc2ccc(Cl)cc2)c1
inactive: [5] 101 % of control | [7] 101 % of control | [9] 95 % of control

CNC(=O)n1cnc(N)n1 (tested in a mixture with another compound)
inactive: [10] 96 % of control | [11] 103 % of control

O=C1NC(=O)C(c2cccc(F)c2)N1 (configuration not stated)
inactive: dose: 50.0 mg/kg/injection, schedule: Q01DX001 (ip), vehicle: saline 97 % of control | [12] 94 % of control | [13] 94 % of control | [14] 111 % of control

CCSc1ncnc2c1ncn2C1OC(CO)C(O)C1O (configuration not stated)
inactive: dose: 132.0 mg/kg/injection, schedule: Q04DX003 (ip), vehicle: saline with Tween-80 116 % of control | [7] 124 % of control

CCCCCCCCCCCOP(=O)(OCC)OCC
inactive: [15] 95 % of control | dose: 200.0 mg/kg/injection, schedule: Q04DX002 (ip), vehicle: saline with Tween-80 95 % of control | [16] 106 % of control

CCCCN(C)N=Nc1cn(C2OC(CO)C(O)C2O)c(=O)n(C)c1=O (configuration not stated)
inactive: dose: 100.0 mg/kg/injection, schedule: Q01DX005 (ip), vehicle: saline 119 % of control

NC(=O)C1CN1Cc1ccccc1 (configuration not stated)
inactive: [4] 97 % of control | [6] 95 % of control | [8] 89 % of control

O=C(OCc1ccc2c(c1)OCO2)C1CC1
inactive: [15] 103 % of control | [16] 101 % of control
